Results on 30 compounds are retold here after ChEMBL document CHEMBL5108007, “High ligand efficiency quinazoline compounds as novel A2A adenosine receptor antagonists” (Eur J Med Chem, 2022).

Usually Ki stands for a measure of affinity in units of concentration, obtained from inhibition or displacement. A high value points to lower affinity.

The assay has as its target Adenosine receptor A2a (Homo sapiens, UniProt P29274). The assay can be described thus: Displacement of [3H]ZM241385 from human adenosine A2A receptor expressed in HEK293 cell membrane incubated for 1 hr by microplate beta scintillation counting based radioligand inhibition assay. It counts as cell membranes. For orientation: In a radioligand displacement assay an active substance lowers the binding of a labelled ligand.

Sequence of Adenosine receptor A2a (P29274 whole entry): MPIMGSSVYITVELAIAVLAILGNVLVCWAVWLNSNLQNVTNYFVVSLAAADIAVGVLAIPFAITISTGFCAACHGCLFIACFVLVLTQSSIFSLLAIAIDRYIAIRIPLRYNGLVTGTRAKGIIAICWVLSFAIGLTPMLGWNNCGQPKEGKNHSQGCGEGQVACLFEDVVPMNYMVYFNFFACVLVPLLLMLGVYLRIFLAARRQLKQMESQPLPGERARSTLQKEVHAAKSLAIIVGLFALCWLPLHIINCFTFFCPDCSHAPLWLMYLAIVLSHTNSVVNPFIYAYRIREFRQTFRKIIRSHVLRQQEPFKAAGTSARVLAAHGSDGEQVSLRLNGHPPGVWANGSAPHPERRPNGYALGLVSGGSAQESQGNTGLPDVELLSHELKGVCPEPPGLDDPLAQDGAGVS

`c1ccc(CCNc2ncnc3ccccc23)cc1` came in with an inhibition constant Ki of more than 10000 nM.

Compound `Oc1nc(-c2ccccc2)c2ccccc2n1` showed an inhibitory constant (Ki) of more than 10000 nM.

As to `Clc1nc(-c2ccccc2)c2ccccc2n1`, the Ki is more than 10000 nM.

`c1ccc(-c2ncnc3ccccc23)cc1` returned an inhibitory constant (Ki) of 2300 nM.

`Nc1nc(Nc2ccccc2)c2ccccc2n1` showed a Ki of more than 10000 nM.

The compound `Nc1nc(NCCc2ccccc2)c2ccccc2n1` yielded a Ki of more than 10000 nM.

`Nc1nc(NCc2ccccc2)c2ccccc2n1` showed a Ki of more than 10000 nM.

In turn, `Nc1nc(-c2ccccc2)nc2ccccc12` showed a Ki of more than 10000 nM.

As for `Nc1nc(-c2ccccc2)c2ccccc2n1`, the affinity corresponds to a Ki of 198 nM.

Compound `Nc1nc(-c2cccc(F)c2)c2ccccc2n1` showed a Ki of 174 nM.

In turn, `COc1cccc(-c2nc(N)nc3ccccc23)c1` showed a Ki of 708 nM.

Consider `NCc1nc(-c2ccccc2)c2ccccc2n1`, for which the Ki was more than 10000 nM.

Take `Nc1nc(CCc2ccccc2)c2ccccc2n1`: the Ki is more than 10000 nM.

Compound `Nc1nc(-c2ccoc2)c2ccccc2n1` gave a Ki of 696 nM.

As for `C(#Cc1ncnc2ccccc12)c1ccccc1`, affinity was put at a Ki of 4000 nM.

`N#Cc1cccc(-c2nc(N)nc3ccccc23)c1` gave a Ki of 586 nM.

As for `Cc1cccc(C)c1-c1nc(N)nc2ccccc12`, the Ki was more than 10000 nM.

On to `Cc1ccccc1-c1nc(N)nc2ccccc12`, for which the Ki was found to be 3300 nM.

Consider `NCc1nc(-c2ccco2)c2ccccc2n1`, for which the Ki was more than 10000 nM.

The compound `Nc1nc(-c2ccccc2[N+](=O)[O-])c2ccccc2n1` registered an inhibition constant Ki of more than 10000 nM.

The compound `Nc1nc(-c2ccccc2N)c2ccccc2n1` yielded a Ki of 2000 nM.

Compound `NCc1nc(NCCc2ccccc2)c2ccccc2n1` had a Ki of more than 10000 nM.

In turn, `Nc1nc(-c2ccco2)c2ccccc2n1` yielded a Ki of 89 nM. This lies in the double-digit nanomolar range.

For `Cc1ccc(-c2nc(N)nc3ccccc23)cc1`, the Ki is 1500 nM.

The compound `Nc1nc(-c2cccs2)c2ccccc2n1` gave a Ki of 171 nM.

Turning to `CC(C)(C)c1ccc(-c2nc(N)nc3ccccc23)cc1`, the Ki is more than 10000 nM.

With `COc1ccccc1-c1nc(N)nc2ccccc12`, the affinity corresponds to a Ki of 651 nM.

As to `Nc1nc(-c2ccccc2F)c2ccccc2n1`, the Ki was 456 nM.

With `Nc1nc(-c2ccc(F)cc2)c2ccccc2n1`, the Ki was 80 nM. Compared with the last compound, the Ki is about 5.7-fold lower.

As for `COc1ccc(-c2nc(N)nc3ccccc23)cc1`, the Ki is 736 nM.
